Experimental data as given in US9492428B2, “Compounds, compositions, pharmaceutical compositions, and methods of use” (University of Louisville Research Foundation, Inc., priority 2011, dated 2016).

What was measured:
Assay type in all cases: cell-based, human
DU145 cells [1] = assay: Immunofluorescence (confocal) microscopy, α-tubulin and DAPI; conditions: 10 μM
Procedure: FIG. 14. Fluorescent microscopy of DU145 prostate cancer cells. DU145 cells were plated in culture dishes designed for confocal microscopy and allowed to adhere for 18 hours at 37° C. They were then for incubated for a further 24 and 48 h with 10 μM compound I-1 or 48 h with vehicle (DMSO). After that, cells were washed with cold PBS, fixed with 4% paraformaldehyde, and permeabilized with 0.1% Triton 100X. Cells were stained with 4′6-diamidino-2-phenylindole (DAPI), which binds to DNA, and with anti-α-tubulin antibody labeled with Alexa Fluor 488 to show the location of microtubules. Scale bars indicate a length of […], arrows indicate cells with evidence of aberrant mitosis, and asterisks indicate cells with apoptotic morphology.
Immunofluorescence microscopy. Cells (2.5×10^4) in fresh complete culture medium were plated on 18 mm diameter glass cover slips for 18 h. The medium was replaced with complete medium containing 10 μM compound I-1 or an equivalent volume of vehicle (DMSO) and incubated for 24 or 48 h. After incubation, cells were washed 3 times with ice-cold PBS, fixed in 4% paraformaldehyde in PBS for 30 min at room temperature, and washed three times with PBS. Cells were permeabilized for 1 min in PBS containing 0.1% Triton X-100, and washed three times with PBS. […]

DU145 cells [2] = assay: Immunoblotting of apoptotic markers (cleaved caspase-3, PARP-1) in DU145
Procedure: FIG. 13. Assays to detect apoptosis in DU145 cells. Prostate cancer cells were left untreated (−) or treated with 10 μM compound I-1 or with vehicle (DMSO) for the time indicated in the figure. (A) After treatment, cells were harvest by trypsinization, washed with PBS, and then incubated with FITC-conjugated Annexin V and propidium iodide. Flow cytometric analysis was performed. The histogram for each sample was split into four quadrants to indicate: viable cells (lower left quadrant), apoptotic cells (lower right quadrant), necrotic cells (upper left quadrant), and necrotic/late apoptotic cells (upper right quadrant). (B) After treatment, cells were lysed and total lysates were analyzed for cellular apoptotic markers by immunoblotting using anti-[…] or antibodies specific to the activated form of Caspase-3 (cleaved Caspase-3). Anti-GAPDH-1 antibody was used as loading control. (C) Some cells were harvested by trypsinization, washed with PBS, and total DNA was extracted then analyzed on a 1.8% agarose gel. M indicates DNA size marker (base pairs).
Cell Culture and Treatment. All cells were obtained from ATCC and were grown in a humidified incubator at 37° C. with 5% CO2. DU145 (hormone-refractory prostate cancer) cells were grown in DMEM and PC3 (hormone-refractory prostate cancer) were grown in F-12K medium supplemented with 10% fetal bovine serum (FBS; Life Technologies), 62.5 μg/mL penicillin and 100 μg/mL streptomycin (Hyclone Laboratories, Logan, Utah). Cells (1×10^6) in fresh complete culture medium were plated on 10 cm diameter tissue dishes for 18 h. Cells for biochemical analyses cells were lysed in lysis buffer (150 mM NaCl, 2 mM EDTA, 50 mM Tris-HCl, 0.25% deoxycholic acid, 1% octylphenoxypolyethoxyethanol (IGEPAL CA-630), pH 7.5) containing protease and phosphatase inhibitor cocktails (Calbiochem, Billerica, Mass.) for 10 min at 4° C. and then cleared by centrifugation at 16,000 g for 10 min at 4° C. All protein concentrations were determined using the bicinchoninic acid (BCA) protein assay (Pierce, Rockford, Ill.).
Immunoblotting. Samples were resolved by 4-20% precast linear gradient SDS-Tris polyacrylamide gel electrophoresis (Bio-rad Bio-Rad Laboratories, Hercules, Calif.) and then electrotransferred onto polyvinylidine fluoride membranes (Millipore, Bedford, Mass.) in Tris-glycine buffer containing 20% methanol. […] Antibody-reactive proteins were detected using a chemiluminescence substrate (SuperSignal; Pierce, Rockford, Ill.) according to the manufacturer's instructions. […]
Next, to further confirm that compound I-1 induces apoptosis in prostate cancer cells, we evaluated key apoptotic molecular markers. […]

PC-3 cells = assay: Clonogenic assay in PC-3
Procedure: FIG. 7. Clonogenic assays in prostate cancer cells treated with compound I-1. Prostate cancer cells, DU145 (A) or PC3 (B), were plated at very low density in 6-well plates and incubated 18 h at 37° C. Cells were treated by addition of various concentrations of compound I-1 or with an equivalent volume of vehicle (DMSO), or were left untreated. After 10 days of treatment, cells were washed with cold PBS, fixed with paraformaldehyde, and stained with crystal violet solution.
Clonogenic Assay. Cells in fresh complete medium were plated at very low density (3×10^2 per well) into six-well plates for 18 h. After complete adhesion, cells were treated with compound I-1 by adding directly to the medium to give the concentration indicated in the figures. Cells were allowed to grow until visible colonies formed (10 days). Cell colonies were fixed with 4% paraformaldehyde in PBS (phosphate-buffered saline), stained with 0.25% crystal violet in 25% methanol, washed and air-dried.

## C[C@@H]1CC[C@H]2C3C(O[C@]4([C@]5(O)CC6(C)C(=O)OC5C[C@@]6(C)O)CC[C@@]31O4)[C@H]1O[C@]13CC=CC(=O)[C@]23C (some centres unmarked) [I-1]
DU145 cells [1]; 24 h
  cells with evidence of aberrant mitosis: increased number
DU145 cells [1]; 48 h
  cells with evidence of abnormal mitosis or apoptosis: almost all of the cells
DU145 cells [2]; 10 μM, 48 h and 72 h
  activated caspase-3: detected
  cleavage of PARP-1 protein (additional band at 89 kDa): detected
DU145 cells [2]; time periods shorter than 48 h
  Caspase-3 activation: could not be detected
  PARP-1 cleavage: could not be detected
PC-3 cells; 2.5 μM, 10 days
  effect on colony formation: Inhibitory effects
PC-3 cells; 10 days of treatment
  concentration that blocked the capacity of single cancer cells to generate colonies: ≥ 5 µM
